From the OPERA property sets (Mansouri et al. 2018)
≈ marks a conversion by molar mass, not a printed value.

settings: not given

Point of comparison: `CCOC(=O)C(=Cc1ccc([N+](=O)[O-])cc1)NC=O`, logP 2.05. Against it:
- CCOC(=O)C(=Cc1ccc(OC)cc1)NC=O — within 0.2 log units, 2.22
- CCOC(=O)C(=Cc1ccoc1)NC=O — within 0.2 log units, 2.08
- CCOC(=O)C(=Cc1ccc(Cl)cc1)NC=O — higher, 2.65
- CCOC(=O)C(=Cc1ccc(OC)c(OC)c1)NC=O — within 0.2 log units, 1.97
- CCOC(=O)C(=Cc1ccc2c(c1)OCO2)NC=O — lower, 1.66
- CCOC(=O)C(=Cc1cccc(Cl)c1)NC=O — higher, 2.51
- CCOC(=O)C(=Cc1cccc([N+](=O)[O-])c1)NC=O — the same, 2.05
- CCOC(=O)C(=Cc1ccccc1)NC=O — higher, 2.48
- CCOC(=O)C(=Cc1ccccc1Cl)NC=O — higher, 2.41

same assay, conditions: 25 °C

With `CCOC(=O)C(=Cc1ccoc1)NC=O` the solubility was 1790 µM (≈ 374 µg/mL).
